From patent US20080125432A1 (Devgen NV, priority 2004, published 2008)

System: isolated rat left atria
Assay: Ex-vivo organ study: functional refractory period in isolated rat left atria
Settings: conc 10^−5 mol/l
Description: The compounds were checked for their effect on the force of contraction, stimulation threshold and for the Functional Refractory Period (FRP) in isolated rat left atria (Rat LA). Rat left atria functionally express the Kv4.3 ion channel, producing the Ito current of the action potential. […] The guinea pig action potential is dominated by hERG like ion channels for the refractory currents. Consequently, activity of hERG channels in vivo should be seen in GP pap muscle preparations.
Left atria were mounted vertically in a two-chambered organ bath containing 100 ml of buffer solution (in mM: NaH2PO4 0.6, MgSO4 0.6, KCl 4.7, NaHCO3 25, glucose 4.5, NaCl-120, CaCl2 2.4). […] The isometric force of the preparations was measured by force transducers, connected to amplifiers, documented by a pen recorder and fed into a computer for evaluation. Force of contraction (FC), threshold stimulus (TS) and the functional refractory period (FRP) were measured at baseline (pre), 20 min after addition of compound, and after washout at the end of the experiment. Threshold stimulus, representing excitability of the tissue, was assessed by varying the voltage applied for electrical stimulation. […] The functional refractory period, representing the time needed for repolarization, was assessed by applying extra stimuli at varying time intervals from the preceding regular pacing stimulus. […]

Compound: COc1ccccc1Nc1nc(C)c(C(=O)N[C@H]2CCC[C@@H]2OCc2ccccc2)s1 [Compound 68, 2-(2-methoxy-phenylamino)-4-methyl-thiazole-5-carboxylic acid (1S,2S)-2-(benzyloxycyclopent-1-yl) amide]
- dFRP Rat: 13 ms
